Experimental data: patent US12600714B2, “Substituted pyrazinecarboxamide compounds for treating diseases related to EGFR mutation” (WIGEN BIOMEDICINE TECHNOLOGY (SHANGHAI) CO., LTD., priority 2020, dated 2026)

Tested on: EGFR (del19/T790M/C797S)
Experiment: HTRF inhibitory activity assay against EGFR (del19/T790M/C797S) enzyme
Format: biochemical
Protocol: Inhibitory Activity Assay of the Compounds Disclosed Herein Against EGFR (del19/T790M/C797S), EGFR (L858R/T790M/C797S) or EGFR (WT) Enzymes
The inhibitory effects of the compounds against EGFR (del19/T790M/C797S), EGFR (L858R/T790M/C797S) or EGFR (WT) enzyme activity was determined by using HTRF. The procedures are as follows:
The WT or mutant EGFR proteins were incubated with a serially diluted compounds at 28° C. for 10 min followed by addition of biotin-labeled general tyrosine kinase (TK) substrate and ATP. The mixture was incubated at room temperature for 40 min for reaction. After the termination of the reaction, an Eu3+-Cryptate-labeled antibody against TK and streptavidin-XL665 were added and the mixture was incubated at room temperature for 60 min. The luminescences at 615 nm and 665 nm were detected and the ratio of 665/615 was calculated to quantify the level of TK substrate phosphorylation. Inhibition % and IC50 of the compounds were calculated relative to the control group.

| SMILES | EGFR (del19/T790M/C797S) inhibition (%) (0.3 nM compound) |
| --- | --- |
| CN1CCN(C2CCN(c3ccc(Nc4nc(OC5CCOCC5)c(-c5ccccc5)nc4C(N)=O)cc3)CC2)CC1 [compound 12] | + (+ indicates an inhibition less than or equal to 20%) |
| COc1cccc(-c2nc(C(N)=O)c(Nc3ccc(N4CCC(N5CCN(C)CC5)CC4)cc3)nc2NC2CCOCC2)c1 [compound 51] | + (+ indicates an inhibition less than or equal to 20%) |
| CN1CCN(C2CCN(c3ccc(Nc4nc(NC5CCOCC5)c(-c5ccsc5)nc4C(N)=O)cc3)CC2)CC1 [compound 93] | ++ (++ indicates an inhibition from 20% to 50%) |
| CN1CCN(C2CCN(c3ccc(Nc4nc(NC5CC6(CCOCC6)C5)c(-c5ccccn5)nc4C(N)=O)cc3)CC2)CC1 [compound 271] | ++ (++ indicates an inhibition from 20% to 50%) |
| Cc1cc(Nc2nc(NC3CCOCC3)c(-c3ccncc3)nc2C(N)=O)ccc1N1CCC(N2CCN(C3CC3)CC2)CC1 [compound 146] | ++ (++ indicates an inhibition from 20% to 50%) |
| CN1CCN(C2CCN(c3ccc(Nc4nc(NC5CCOCC5)c(-c5cccc(O)c5)nc4C(N)=O)cc3)CC2)CC1 [compound 43] | + (+ indicates an inhibition less than or equal to 20%) |
| CN1CCN(C2CCN(c3ccc(Nc4nc(N5CCC(O)C5)c(-c5ccccc5)nc4C(N)=O)cc3)CC2)CC1 (centres unmarked) [compound 29] | ++ (++ indicates an inhibition from 20% to 50%) |
| CN1CCN(C2CCN(c3ccc(Nc4nc(N[C@@H]5CC[C@H](O)C5)c(-c5ccccc5)nc4C(N)=O)cc3)CC2)CC1 [compound 136, 5-(((1R,3S)-3-hydroxycyclopentyl)amino)-3-((4-(4-(4-methylpiperazin-1-yl)piperidin-1-yl)phenyl)amino)-6-phenylpyrazine-2-carboxamide] | ++ (++ indicates an inhibition from 20% to 50%) |
| CN1CCN(C2CCN(c3ccc(Nc4nc(NC5COC5)c(-c5cccc6[nH]ccc56)nc4C(N)=O)cc3F)CC2)CC1 [compound 595] | +++ (+++ indicates an inhibition greater than 50%.) |
| CN1CCN(C2CCN(c3ccc(Nc4nc(NC5CC6(COC6)C5)c(-c5ccnc6[nH]ccc56)nc4C(N)=O)cc3)CC2)CC1 [compound 629] | +++ (+++ indicates an inhibition greater than 50%.) |
| CN1CCN(C2CCN(c3ccc(Nc4nc(N[C@@H]5CCC[C@H]5O)c(-c5ccccc5)nc4C(N)=O)cc3)CC2)CC1 [compound 134] | ++ (++ indicates an inhibition from 20% to 50%) |
| CN1CCN(C2CCN(c3ccc(Nc4nc(N[C@H]5CCOC5)c(-c5ccncc5)nc4C(N)=O)cc3)CC2)CC1 [compound 644] | +++ (+++ indicates an inhibition greater than 50%.) |
| CN1CCN(C2CCN(c3ccc(Nc4nc(NC5CCOCC5)c(C5=CCNCC5)nc4C(N)=O)cc3)CC2)CC1 [compound 109] | + (+ indicates an inhibition less than or equal to 20%) |
| CN1CCN(C2CCN(c3ccc(Nc4nc(N[C@H]5CCOC5)c(-c5ccccc5)nc4C(N)=O)cc3)CC2)CC1 [compound 70] | + (+ indicates an inhibition less than or equal to 20%) |
| CN1CCN(C2CCN(c3ccc(Nc4nc(NC5CCOCC5)c(-c5cccc(S(C)(=O)=O)c5)nc4C(N)=O)cc3)CC2)CC1 [compound 44] | + (+ indicates an inhibition less than or equal to 20%) |
| CN1CCN(C2CCN(c3ccc(Nc4nc(NCC(C)(C)O)c(-c5cccc6[nH]ccc56)nc4C(N)=O)cc3F)CC2)CC1 [compound 537] | +++ (+++ indicates an inhibition greater than 50%.) |

| SMILES | EGFR (del19/T790M/C797S) inhibition (%) (0.3 nM compound) |
| --- | --- |
| CN1CCN(C2CCN(c3ccc(Nc4nc(NC5CCOCC5)c(-c5ccc(Cl)cc5)nc4C(N)=O)cc3)CC2)CC1 [compound 65] | ++ (++ indicates an inhibition from 20% to 50%) |
| CC(C)Nc1nc(Nc2ccc(N3CCC(N4CCN(C)CC4)CC3)c(F)c2)c(C(N)=O)nc1-c1cccc2[nH]ccc12 [compound 530] | +++ (+++ indicates an inhibition greater than 50%.) |
| CN1CCN(C2CCN(c3ccc(Nc4nc(Oc5ccccc5)c(-c5ccccc5)nc4C(N)=O)cc3)CC2)CC1 [compound 6] | + (+ indicates an inhibition less than or equal to 20%) |
| [2H]C([2H])([2H])N1CCN(C2CCN(c3ccc(Nc4nc(NC5CCOCC5)c(-c5ccccn5)nc4C(N)=O)cc3)CC2)CC1 [compound 206] | ++ (++ indicates an inhibition from 20% to 50%) |
| CN1CCN(C2CCN(c3ccc(Nc4nc(N[C@@H]5CCOC5)c(-c5ccncc5)nc4C(N)=O)cc3F)CC2)CC1 [compound 643] | +++ (+++ indicates an inhibition greater than 50%.) |
| CN1CCN(C2CCN(c3ccc(Nc4nc(NC5CCOCC5)c(-c5ccn(C)n5)nc4C(N)=O)cc3)CC2)CC1 [compound 49] | + (+ indicates an inhibition less than or equal to 20%) |
| Cc1cc(Nc2nc(NC3CC4(CCOCC4)C3)c(-c3ccncc3)nc2C(N)=O)ccc1N1CCC(N2CCN(C)CC2)CC1 [compound 379] | ++ (++ indicates an inhibition from 20% to 50%) |
| CN1CCN(C2CCN(c3ccc(Nc4nc(NC5CCC(O)C5)c(-c5cc[nH]n5)nc4C(N)=O)cc3)CC2)CC1 (centres unmarked) [compound 617] | ++ (++ indicates an inhibition from 20% to 50%) |
| CN1CCN(C2CCN(c3ccc(Nc4nc(NC5CCOCC5)c(-c5ccc(C#N)cc5)nc4C(N)=O)cc3)CC2)CC1 [compound 53] | + (+ indicates an inhibition less than or equal to 20%) |
| CN1CCN(C2CCN(c3ccc(Nc4nc(NC5CCC(O)C5)c(-c5cc[nH]n5)nc4C(N)=O)cc3F)CC2)CC1 (centres unmarked) [compound 623] | +++ (+++ indicates an inhibition greater than 50%.) |
| CN1CCN(C2CCN(c3ccc(Nc4nc(N[C@H]5CC[C@@H](O)CC5)c(-c5ccccc5)nc4C(N)=O)cc3)CC2)CC1 [compound 24] | ++ (++ indicates an inhibition from 20% to 50%) |
| CN1CCN(C2CCN(c3ccc(Nc4nc(NC5CCOCC5)c(-c5ccc(N)cc5)nc4C(N)=O)cc3)CC2)CC1 [compound 95] | ++ (++ indicates an inhibition from 20% to 50%) |
| CN1CCN(C2CCN(c3ccc(Nc4nc(NC5CC5)c(-c5cc[nH]n5)nc4C(N)=O)cc3)CC2)CC1 [compound 625] | +++ (+++ indicates an inhibition greater than 50%.) |
| CC(C)Nc1nc(Nc2ccc(N3CCC(N4CCN(C)CC4)CC3)cc2)c(C(N)=O)nc1-c1ccnc2[nH]ccc12 [compound 609] | +++ (+++ indicates an inhibition greater than 50%.) |
| CN1CCN(C2CCN(c3ccc(Nc4nc(NC5COC5)c(-c5ccnc6[nH]ccc56)nc4C(N)=O)cc3)CC2)CC1 [compound 596] | +++ (+++ indicates an inhibition greater than 50%.) |
| CN1CCN(C2CCN(c3ccc(Nc4nc(N5CCCC5)c(-c5ccccc5)nc4C(N)=O)cc3)CC2)CC1 [compound 17] | + (+ indicates an inhibition less than or equal to 20%) |
